Measurements reported in patent US6737383B1, “Herbicidal oxadiazolidines” (priority 1999, dated 2004).

Assays:
morningglory = experiment: Test B pre/postemergence morningglory; assay type: in vivo, Ipomoea hederacea
How it was run: (§1)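 Herbicidal effect was estimated by eye on a ten-point control scale after plants spent twelve to sixteen days in a greenhouse following soil or foliar treatment. Foliar sprays targeted plants at one to four leaves; all doses were formulated in a non-phytotoxic solvent with surfactant.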

wild oat = experiment: Test B pre/postemergence wild oat; assay type: in vivo, Avena fatua
How it was run: as §1

bamyardgrass = experiment: Test B flood test barnyardgrass; assay type: in vivo, Echinochloa crus-galli; settings: Pre-emergence
How it was run: (§2)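 Flood test on plants grown to the 2-leaf stage; treated plants kept in greenhouse twelve to sixteen days, then visually rated against controls on a 0 (no effect) to 10 (complete control) scale.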

rape = experiment: Test B pre/postemergence rape; assay type: in vivo, Brassica napus
How it was run: as §1

rice = experiment: Test B flood test rice; assay type: in vivo, Oryza sativa; settings: Pre-emergence
How it was run: as §2

blackgrass = experiment: Test B pre/postemergence blackgrass; assay type: in vivo, Alopecurus myosuroides
How it was run: as §1

giant foxtail = experiment: Test B pre/postemergence giant foxtail; assay type: in vivo, Setaria faberii
How it was run: as §1

corn = experiment: Test B pre/postemergence corn; assay type: in vivo, Zea mays
How it was run: as §1

soybean = experiment: Test B pre/postemergence soybean; assay type: in vivo, Glycine max
How it was run: as §1

velvetleaf = experiment: Test B pre/postemergence velvetleaf; assay type: in vivo, Abutilon theophrasti
How it was run: as §1

cocklebur = experiment: Test B pre/postemergence cocklebur; assay type: in vivo, Xanthium strumarium
How it was run: as §1

sugar beet = experiment: Test B pre/postemergence sugar beet; assay type: in vivo, Beta vulgaris
How it was run: as §1

pigweed = experiment: Test B pre/postemergence pigweed; assay type: in vivo, Amaranthus retroflexus
How it was run: as §1

surinam grass = experiment: Test B pre/postemergence surinam grass; assay type: in vivo, Brachiaria decumbens
How it was run: as §1

bedstraw = experiment: Test B pre/postemergence bedstraw; assay type: in vivo, Galium aparine; settings: Postemergence, Rate 250 g/ha; scale 0 to 10, 0 is no effect, 10 is complete control
How it was run: as §1

smallflower flatsedge = experiment: Test B flood test smallflower flatsedge; assay type: in vivo, Cyperus difformis; settings: Pre-emergence
How it was run: as §2

duck salad = experiment: Test B flood test duck salad; assay type: in vivo, Heteranthera limosa; settings: Pre-emergence
How it was run: as §2

purple nutsedge = experiment: Test B pre/postemergence purple nutsedge; assay type: in vivo, Cyperus rotundus
How it was run: as §1

crabgrass = experiment: Test B pre/postemergence crabgrass; assay type: in vivo, Digitaria sanguinalis
How it was run: as §1

wheat = experiment: Test B pre/postemergence wheat; assay type: in vivo, Triticum aestivum
How it was run: as §1

[1] = Postemergence, Rate 250 g/ha, scale 0 to 10, 0 is no effect, 10 is complete control
[2] = Postemergence, Rate 500 g/ha, scale of 0 to 10 where 0 is no effect and 10 is complete control
[3] = Preemergence, Rate 62 g/ha, scale 0 to 10 (0 no effect, 10 complete control)
[4] = Preemergence, Rate 125 g/ha, scale of 0 to 10 where 0 is no effect and 10 is complete control
[5] = Preemergence, Rate 250 g/ha, scale 0 to 10, 0 is no effect, 10 is complete control
[6] = Preemergence, Rate 500 g/ha, scale of 0 to 10 where 0 is no effect and 10 is complete control
[7] = Rate 62 g/ha, Postemergence, scale of 0 to 10 where 0 is no effect and 10 is complete control
[8] = Rate 62 g/ha, flood test species, visual evaluation after twelve to sixteen days
[9] = Rate 250 g/ha, flood-test species, scale 0 to 10, 0 is no effect, 10 is complete control
[10] = Rate 500 g/ha, flood test species, scale 0 to 10 (0 no effect, 10 complete control)
[11] = Preemergence, Rate 250 g/ha, scale of 0 to 10 where 0 is no effect and 10 is complete control
[12] = Postemergence, Rate 125 g/ha, scale 0 to 10, 0 is no effect, 10 is complete control

SMILES: CC(C)Cn1c(=O)on(C(=O)N(c2ccc(F)cc2F)C(C)C)c1=O [Compound 394]
- Plant response rating, Morningglory (morningglory; [1]): 6
- Morningglory plant response rating (morningglory; [2]): 7
- Plant response rating, Morningglory (morningglory; [3]): 0
- Plant response rating, Morningglory (morningglory; [4]): 0
- Morningglory plant response rating (morningglory; [5]): 0
- Morningglory plant response rating (morningglory; [6]): 2
- Morningglory plant response rating (morningglory; [7]): 0
- Wild oats plant response rating (wild oat; [2]): 6
- Plant response rating, Wild oats (wild oat; [3]): 4
- Plant response rating, Wild oats (wild oat; [4]): 6
- Wild oats plant response rating (wild oat; [5]): 10
- Wild oats plant response rating (wild oat; [6]): 10
- Wild oats plant response rating (wild oat; [7]): 0
- Plant response rating, Barnyardgrass (0 to 10 scale, 0 is no effect, 10 is complete control) (bamyardgrass; [8]): 0
- Barnyardgrass plant response rating (bamyardgrass; [9]): 6
- Barnyardgrass plant response rating (bamyardgrass; [10]): 8
- Plant response rating, Rape (rape; [1]): 0
- Plant response rating, Rape (rape; [3]): 0
- Plant response rating, Rape (rape; [4]): 2
- Rape plant response rating (rape; [5]): 7
- Rape plant response rating (rape; [6]): 9
- Rape plant response rating (rape; [7]): 0
- Plant response rating, Rice (0 to 10 scale, 0 is no effect, 10 is complete control) (rice; [8]): 1
- Rice plant response rating (rice; [9]): 1
- Rice plant response rating (rice; [10]): 1
- Plant response rating, Blackgrass (blackgrass; [1]): 9
- Plant response rating, Blackgrass (blackgrass; [3]): 7
- Plant response rating, Blackgrass (blackgrass; [4]): 8
- Blackgrass plant response rating (blackgrass; [11]): 10
- Blackgrass plant response rating (blackgrass; [6]): 10
- Blackgrass plant response rating (blackgrass; [7]): 2
- Plant response rating, Giant foxtail (giant foxtail; [12]): 7
- Plant response rating, Giant foxtail (giant foxtail; [1]): 8
- Giant foxtail plant response rating (giant foxtail; [2]): 9
- Plant response rating, Giant foxtail (giant foxtail; [3]): 9
- Plant response rating, Giant foxtail (giant foxtail; [4]): 10
- Giant foxtail plant response rating (giant foxtail; [5]): 10
- Giant foxtail plant response rating (giant foxtail; [6]): 10
- Plant response rating, Corn (corn; [12]): 0
- Plant response rating, Corn (corn; [1]): 0
- Corn plant response rating (corn; [2]): 0
- Plant response rating, Corn (corn; [3]): 0
- Plant response rating, Corn (corn; [4]): 0
- Corn plant response rating (corn; [5]): 3
- Corn plant response rating (corn; [6]): 5
- Corn plant response rating (corn; [7]): 0
- Plant response rating, Soybean (soybean; [1]): 5
- Soybean plant response rating (soybean; [2]): 5
- Plant response rating, Soybean (soybean; [3]): 0
- Soybean plant response rating (soybean; [5]): 1
- Soybean plant response rating (soybean; [6]): 2
- Soybean plant response rating (soybean; [7]): 3
- Plant response rating, Velvetleaf (velvetleaf; [1]): 0
- Velvetleaf plant response rating (velvetleaf; [2]): 3
- Plant response rating, Velvetleaf (velvetleaf; [3]): 1
- Plant response rating, Velvetleaf (velvetleaf; [4]): 5
- Velvetleaf plant response rating (velvetleaf; [5]): 7
- Velvetleaf plant response rating (velvetleaf; [6]): 7
- Velvetleaf plant response rating (velvetleaf; [7]): 0
- Plant response rating, Cocklebur (cocklebur; [12]): 0
- Plant response rating, Cocklebur (cocklebur; [1]): 0
- Cocklebur plant response rating (cocklebur; [2]): 4
- Plant response rating, Cocklebur (cocklebur; [3]): 0
- Plant response rating, Cocklebur (cocklebur; [4]): 0
- Cocklebur plant response rating (cocklebur; [5]): 0
- Cocklebur plant response rating (cocklebur; [6]): 0
- Cocklebur plant response rating (cocklebur; [7]): 0
- Plant response rating, Sugarbeets (sugar beet; [1]): 1
- Sugarbeets plant response rating (sugar beet; [2]): 5
- Plant response rating, Sugarbeets (sugar beet; [3]): 0
- Plant response rating, Sugarbeets (sugar beet; [4]): 3
- Sugarbeets plant response rating (sugar beet; [5]): 4
- Sugarbeets plant response rating (sugar beet; [6]): 7
- Sugarbeets plant response rating (sugar beet; [7]): 0
- Plant response rating, Redroot pigweed (pigweed; [1]): 2
- Redroot pigweed plant response rating (pigweed; [2]): 7
- Plant response rating, Redroot pigweed (pigweed; [3]): 1
- Plant response rating, Redroot pigweed (pigweed; [4]): 2
- Redroot pigweed plant response rating (pigweed; [5]): Redroot pigwee 6
- Redroot pigweed plant response rating (pigweed; [6]): 10
- Redroot pigweed plant response rating (pigweed; [7]): 0
- Plant response rating, B. signalgrass (surinam grass; [12]): 1
- Plant response rating, B. signalgrass (surinam grass; [1]): 2
- B. signalgrass plant response rating (surinam grass; [2]): 9
- Plant response rating, B. signalgrass (surinam grass; [3]): 2
- Plant response rating, B. signalgrass (surinam grass; [4]): 5
- B. signalgrass plant response rating (surinam grass; [11]): 8
- B. signalgrass plant response rating (surinam grass; [6]): 10
- B. signalgrass plant response rating (surinam grass; [7]): 0
- Plant response rating, Bedstraw (bedstraw): 5
- Plant response rating, S. Flatsedge (0 to 10 scale, 0 is no effect, 10 is complete control) (smallflower flatsedge; [8]): 4
- S. Flatsedge plant response rating (smallflower flatsedge; [9]): 8
- S. Flatsedge plant response rating (smallflower flatsedge; [10]): 8
- Plant response rating, Ducksalad (0 to 10 scale, 0 is no effect, 10 is complete control) (duck salad; [8]): 0
- Ducksalad plant response rating (duck salad; [9]): 3
- Ducksalad plant response rating (duck salad; [10]): 3
- Plant response rating, Nutsedge (purple nutsedge; [1]): 0
- Plant response rating, Nutsedge (purple nutsedge; [3]): 0
- Plant response rating, Nutsedge (purple nutsedge; [4]): 0
- Nutsedge plant response rating (purple nutsedge; [5]): 2
- Nutsedge plant response rating (purple nutsedge; [6]): 6
- Nutsedge plant response rating (purple nutsedge; [7]): 0
- Plant response rating, Crabgrass (crabgrass; [12]): 2
- Plant response rating, Crabgrass (crabgrass; [1]): 8
- Crabgrass plant response rating (crabgrass; [2]): 9
- Plant response rating, Crabgrass (crabgrass; [3]): 9
- Plant response rating, Crabgrass (crabgrass; [4]): 10
- Crabgrass plant response rating (crabgrass; [5]): 10
- Crabgrass plant response rating (crabgrass; [6]): 10
- Crabgrass plant response rating (crabgrass; [7]): 2
- Wheat plant response rating (wheat; [2]): 4
- Plant response rating, Wheat (wheat; [3]): 0
- Plant response rating, Wheat (wheat; [4]): 1
- Wheat plant response rating (wheat; [5]): 6
- Wheat plant response rating (wheat; [6]): 9
- Wheat plant response rating (wheat; [7]): 0
